Measured values published in patent US20080287377A1, “Composition Based on Triethyl Citrate for the Prevention of Enzymatic Hydrolysis of Triglycerides” (priority 2005, published 2008).
Counter-ions that a name gives are not always drawn.

Molecular target: T1, porcine lipase (Sus scrofa, UniProt P00591)
T1 sequence (P00591 1-450): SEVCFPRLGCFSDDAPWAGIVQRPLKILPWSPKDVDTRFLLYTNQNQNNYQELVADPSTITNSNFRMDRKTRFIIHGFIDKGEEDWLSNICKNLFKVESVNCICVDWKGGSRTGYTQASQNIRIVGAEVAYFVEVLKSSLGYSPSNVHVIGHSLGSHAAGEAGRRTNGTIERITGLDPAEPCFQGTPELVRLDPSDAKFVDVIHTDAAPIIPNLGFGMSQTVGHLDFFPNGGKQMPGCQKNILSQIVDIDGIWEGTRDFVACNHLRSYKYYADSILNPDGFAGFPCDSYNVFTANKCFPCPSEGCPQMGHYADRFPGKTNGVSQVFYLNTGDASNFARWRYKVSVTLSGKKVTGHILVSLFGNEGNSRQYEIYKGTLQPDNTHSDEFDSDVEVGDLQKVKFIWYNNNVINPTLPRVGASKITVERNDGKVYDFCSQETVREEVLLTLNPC
Test: Inhibition of the lyses of triglycerides (olive oil) by porcine lipase, colorimetric test of released fatty acids
Format: biochemical
Settings: for Absorbance Mean: 37° C., read at 546 nm
Protocol: The inhibition of the lyses of triglycerides in the presence of porcine lipase was evaluated by analysing the released fatty acids using a colorimetric test.
The test consists in two distinct phases, one enzymatic reaction test which enables the lyses of triglycerides to leave the olive oil in the presence of porcine lipase and, successively, a colorimetric essay to determine the released fatty acids formed.
The porcine lipase, in the presence of the substrata (olive oil) and in opportune incubation conditions, catalyzes the following reaction:
Triglycerides+H2O→Diglycerides+Fatty acids
The dose of fatty acids allows indirect evaluation of the enzymatic activity and the lyses of triglycerides.
To evacuate the inhibition activity of the substance being analysed, three different concentrations of the substance under examination (5%, 1% and 0.5% in water) were tested at two different times (15 and 30 minutes).
In order to allow complete solubility, the 5% concentration was left at room temperature for 72 hours.
The porcine lipase was dissolved in deionised water at 4° C. just before use at the concentrations of 2000 U/ml. As a source of triglycerides olive oil was used. The buffer used for the reaction is Tris HCl 200 mM, pH=7.7 at 37° C. The test was conducted in the presence and in the absence of substance to be tested at different concentrations.
The following reagents are incubated at 37° C.: deionised water (150 μL), buffer (100 μL), olive oil (300 μL).
In the case of the sample (TEC 5%, 1% and 0.5%), the water was substituted with 150 μL of the solution to be tested.
Subsequent, the enzymatic solution (200 μL) was added and the reaction was allowed to develop for 30 and 15 minutes at a temperature of 37° C. On termination of the 15 and 30 minute periods, the reaction was blocked by adding 300 μL of ethanol at 95%.
50 μL of the solution containing the released fatty acids formed are used for the calorimetric dose, carried out using the special kit, that provides the necessary reagents to develop the reaction described below.
In the presence of the Acyl-CoA enzyme synthesis (AcylCS) and adenosin-5′-triphosphate (ATP) the released fatty acids are converted into acyl-CoA, adenosin-5′-monophosphate (AMP) and pyrophosphate. Acyl-CoA reacts with oxygen (O2) in the presence of Acyl coA oxidase (ACOD) forming 2,3-enoylcoenzymeA. The resulting H202 converts the 2,4,6-tribromo-3-hydroxy-benzoic acid (TBHB) and the 4-aminoantipyrine (4-AA) into a red stain in the presence of peroxidase (POD).
The samples are read at the 546 nm wave length, before and after the addition of ACOD and the reaction is conducted at room temperature.
Fatty acids+CoA+ATP→acyl-CoA+AMP+pyrophosphate
Acyl-CoA+O2→enoyl-coA+H202

[1] = TEC 0.5% in water, 15 min reaction
[2] = TEC 0.5% in water, 30 min reaction
[3] = TEC 1% in water, 15 min reaction
[4] = TEC 1% in water, 30 min reaction
[5] = TEC 5% in water, 15 min reaction
[6] = TEC 5% in water, 30 min reaction

CCOC(=O)CC(O)(CC(=O)OCC)C(=O)OCC [TEC, triethyl citrate]
fatty acids reduction compared to control (%) [1]: 18.04%
Absorbance Mean [1]: 0.584
fatty acids reduction compared to control (%) [2]: 11.10%
Absorbance Mean [2]: 0.084
fatty acids reduction compared to control (%) [3]: 17.12%
Absorbance Mean [3]: 0.5905
fatty acids reduction compared to control (%) [4]: 12.70%
Absorbance Mean [4]: 0.083
fatty acids reduction compared to control (%) [5]: 44.84%
Absorbance Mean [5]: 0.393
fatty acids reduction compared to control (%) [6]: 81.50%
Absorbance Mean [6]: 0.018
protection of the triglycerides from the enzymatic hydrolysis exercised by the lipases (maximum percentage according to the method followed, from the absorbance values): up to 85%
